Measurements from patent publication US9296704B2, “Substituted pyrimidines as protein kinase inhibitors” (CELGENE AVILOMICS RESEARCH, INC., priority 2007, dated 2016).

Columns and labels:
EGFR mutant (C797S) = target: T1, EGFR mutant (C797S) (Homo sapiens, UniProt P00533, C797S); assay: Mass spectrometry for EGFR mutant (C797S); assay type: binding; settings: 10-fold excess of compound, up to 3 hrs, MALDI
T1 construct: Amino acids 696 to 1022 of the EGFR-WT kinase domain; six-histidine tag (TEV-cleavable) (C); made in house; host or cells: SF21 insect cells (baculovirus; P1 stocks in SF9)
Experimental: (§1) Amino acids 696 to 1022 of the EGFR-WT kinase domain (NM_005228, NP_005219.2) was subcloned into the NcoI and HindIII sites of the pFastHTa vector (Invitrogen, Carlsbad, Calif.). To make the EGFR-mutant protein, the cysteine at position 797 was changed to a serine using the Stratagene QuikChange kit (Stratagene, Cedar Creek, Tex.), according to manufacturer's instructions.
(§2) EGFR wild type and EGFR mutant (C797S) was incubated with 10-fold excess of compound I-1 for 1 hr and 3 hrs. 1 ul aliquots of the samples (total volume 5-8 ul) were diluted with 10 ul of 0.1% TFA prior to micro C4 ZipTipping directly onto the MALDI target using Sinapinic acid as the desorption matrix (10 mg/ml in 0.1% TFA:Acetonitrile 50:50). […] (See FIG. 8).

ErbB4 = ErbB4 (Homo sapiens, UniProt Q15303); assay: Z'-LYTE biochemical assay, ErbB4 kinase inhibition
Sequence of ErbB4 (Q15303 26-1308): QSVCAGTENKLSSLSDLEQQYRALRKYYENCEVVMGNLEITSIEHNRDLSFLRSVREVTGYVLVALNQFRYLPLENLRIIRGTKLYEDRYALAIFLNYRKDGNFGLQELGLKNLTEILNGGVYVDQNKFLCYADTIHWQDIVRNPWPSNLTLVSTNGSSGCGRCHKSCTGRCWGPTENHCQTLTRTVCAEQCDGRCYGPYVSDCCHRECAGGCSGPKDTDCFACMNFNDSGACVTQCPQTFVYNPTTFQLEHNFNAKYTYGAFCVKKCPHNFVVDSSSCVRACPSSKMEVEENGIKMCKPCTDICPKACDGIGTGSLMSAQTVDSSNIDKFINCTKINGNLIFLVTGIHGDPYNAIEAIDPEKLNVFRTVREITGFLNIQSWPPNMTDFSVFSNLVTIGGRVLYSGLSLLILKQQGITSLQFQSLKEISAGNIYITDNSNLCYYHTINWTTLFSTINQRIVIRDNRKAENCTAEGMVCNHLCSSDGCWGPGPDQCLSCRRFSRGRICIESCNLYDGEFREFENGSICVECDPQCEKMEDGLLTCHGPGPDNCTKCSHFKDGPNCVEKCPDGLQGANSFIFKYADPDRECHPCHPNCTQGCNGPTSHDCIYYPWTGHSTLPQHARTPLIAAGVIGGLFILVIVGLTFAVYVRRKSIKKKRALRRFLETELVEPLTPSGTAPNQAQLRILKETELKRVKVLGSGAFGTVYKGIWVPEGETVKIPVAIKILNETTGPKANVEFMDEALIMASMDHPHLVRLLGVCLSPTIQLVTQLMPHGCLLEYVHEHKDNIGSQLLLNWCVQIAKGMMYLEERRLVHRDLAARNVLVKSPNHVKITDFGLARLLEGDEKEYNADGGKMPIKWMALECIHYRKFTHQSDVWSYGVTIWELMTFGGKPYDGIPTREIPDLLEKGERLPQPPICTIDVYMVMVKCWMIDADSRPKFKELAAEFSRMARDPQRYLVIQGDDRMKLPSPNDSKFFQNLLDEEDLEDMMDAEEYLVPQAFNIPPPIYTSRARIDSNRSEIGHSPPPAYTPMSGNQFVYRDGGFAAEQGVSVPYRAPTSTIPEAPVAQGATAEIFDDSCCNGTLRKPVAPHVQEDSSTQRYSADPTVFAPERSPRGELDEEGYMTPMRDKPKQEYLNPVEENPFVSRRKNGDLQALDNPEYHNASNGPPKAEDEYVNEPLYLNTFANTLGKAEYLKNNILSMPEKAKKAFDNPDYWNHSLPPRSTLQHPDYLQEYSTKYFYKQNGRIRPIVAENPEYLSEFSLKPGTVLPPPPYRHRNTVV
Experimental: Compounds of the present invention were assayed as inhibitors of one or more of ErbB1, ErbB2, and/or ErbB4 in a manner substantially similar to the method described by Invitrogen Corp (Invitrogen Corporation, 1600 Faraday Avenue, Carlsbad, Calif., CA; http://www.invitrogen.com/downloads/Z-LYTE_Brochure—1205.pdf) using the Z′-LYTE™ biochemical assay procedure or similar biochemical assay. The Z′-LYTE™ biochemical assay employs a fluorescence-based, coupled-enzyme format and is based on the differential sensitivity of phosphorylated and non-phosphorylated peptides to proteolytic cleavage.

[1] = tested on: EGFR (ErbB1) in A431 human epidermoid carcinoma cells; assay: Washout experiment for EGFR activity in A431 cells; assay type: cell-based
Experimental: A431 human epidermoid carcinoma cells were grown in 6-well plates to 90% confluence and then incubated in serum-free media for 18 hr. Duplicate sets of cells were treated with 1 μM designated compound for 1 hr. One set of cells was then stimulated with 100 ng/ml EGF for 5 min, and extracts were made as described. The other set of cells was washed free of the compound with warmed compound-free medium, incubated for 2 hr, washed again, incubated another 2 hr, washed again, and then incubated another 2 hr washed again and incubated for additional 2 hr and then stimulated with EGF.

EGFR wild type = target: T2, EGFR wild type (Homo sapiens, UniProt P00533); assay: Mass spectrometry for EGFR wild type (covalent modification); assay type: binding; settings: 10-fold excess of compound, 1 hr and 3 hrs, MALDI
T2 construct: Amino acids 696 to 1022 of the EGFR-WT kinase domain; six-histidine tag (TEV-cleavable) (C); made in house; host or cells: SF21 insect cells (baculovirus; P1 stocks in SF9)
Experimental: as §1, §2

C=CC(=O)Nc1cccc(Nc2cc(Nc3cccc(Br)c3)ncn2)c1 [I-1, N-{3-[6-(3-bromophenylamino)-pyrimidin-4-ylamino]-phenyl}-2-propenamide]
reactivity with EGFR mutant (C797S) by intact mass (EGFR mutant (C797S)): no significant reactivity | inhibition at 0.1 µM (ErbB4; @ 100 nM): 64% | inhibition at 1 µM (ErbB4; @ 1 μM): 86% | enzyme inhibition after washout ([1]; A431 cells, 1 μM for 1 hr, washout, EGF stimulation): maintains enzyme inhibition | type of binding to ErbB1 (irreversible / reversible) ([1]; washout experiment, FIG. 2): irreversibly binds to ErbB1 | reactivity with EGFR wild type by intact mass (EGFR wild type): single site covalent modification
